Measurements taken from patent publication US9879303B2, “Chromogenic glucuronidase substrates and uses” (Glycosynth Limited, priority 2013, dated 2018).
Counter-ions that a name gives are not always drawn.

Tested on: E. coli clinical isolates
Assay: screen of strains on agar plates (CPS ID 3 or Columbia agar)
Assay type: cell-based
Design: key to colour: Red, Green, Black or Purple mean strong colour; Red, Green, Black or Purple mean strong colour; Red, Green, Black or Purple mean strong colour; Red, Green, Black or Purple mean strong colour; +/− means less colour than strong; Tr means a trace of colour, less than +/−; — means no colour
Conditions: for colour: 37° C. 18 hours
Excerpt: In order to obtain a fuller picture of the sensitivity of the substrates, they were screened with 100 different clinical isolates of E. coli in a liquid medium containing FAC. The isolates were chosen at random from the Microbiology Department, Freeman Hospital, Newcastle Upon Tyne, UK. The effectiveness of the new substrates was compared with three other media which all contained indoxyl-β-D-glucuronides. One was a commercial medium, CPS ID 3 (bioMérieux SA, Lyon, France). […] This medium was employed as a control. Among the β-D-glucuronidase producing strains of E. coli there is a large variation in the quantity of the enzyme produced and it is almost certain that the CPS ID 3 medium has been rigorously optimised to allow good growth of all the target organisms and maximum expression of the target enzymes. Therefore, two indoxyl glucuronides, X-β-D-glucuronide CHA salt and Rose-β-D-glucuronide CHA salt were also tested in a simple agar medium to allow a direct comparison of the sensitivity of these Indoxyl glucuronides when used in a medium that has not been optimised for the growth of the target organism. The comparison of the results for Rose-β-D-glucuronide and the CPS ID 3 medium was of particular significance as the commercial medium also uses Rose-β-D-glucuronide for the detection of E. coli. For consistency, the four glucuronides were all chosen as their CHA salts. As already stated, it is not anticipated that the salt form is critical to their performance. Currently. X-β-D-glucuronide is often used as either the CHA salt or the sodium salt. Brenner and colleagues [K. P. Brenner et al, Appl. Environ. Microbiol., 59, 3534-3544, (1993)] found no difference in the performance of the CHA and sodium salt forms with their application using indoxyl-β-D-glucuronide, neither in respect of colour development nor in the recovery of E. coli.
The two indoxyl glucuronides used produce insoluble endpoints following hydrolysis, as does the CPS ID 3 medium. It was therefore necessary to test these two substrates on agar plates. In contrast, catechol-β-D-glucuronide (1) and DHN-β-D-glucuronide (2b) give much more soluble endpoints best suited to liquid media and were therefore tested in a broth medium. Each broth was prepared using proteose peptone (Oxoid, Basingstoke, UK) (2 g), NaCl (1 g) and FAC (100 mg) in DI water (180 mL). This mixture was autoclaved and cooled to room temperature before being dispensed into bijoux (100×1.8 mL). Catechol β-D-glucuronide CHA salt (1) or DHN-β-D-glucuronide CHA salt (2b) (60 mg) were each dissolved in water (20 mL) and filtered to sterilize before being aseptically dispensed into successive bijoux (0.2 mL) containing the broth solution. The broth/substrate solutions were then inoculated with bacterial suspensions made up to 0.5 McFarland standard (2 μL per bijoux). X-β-D-glucuronide CHA salt (Glycosynth Ltd, Warrington, UK) (10 mg) was dissolved in NMP (200 μL). Rose-β-D-glucuronide CHA salt (Glycosynth Ltd, Warrington, UK) (20 mg) was dissolved in NMP (200 μL). These solutions were then added to Columbia agar (Oxoid, Basingstoke, UK) (100 mL) and inoculated with bacterial suspensions made up to 0.5 McFarland standard (1 μL). The plates and broths were incubated at 37° C. for 18 hours in air.

[1] = 100 E. coli strains after 18 h incubation

O=C(O)[C@H]1O[C@@H](Oc2c[nH]c3ccc(Br)c(Cl)c23)[C@H](O)[C@@H](O)[C@@H]1O [X-β-D-glucuronide CHA salt, 5-bromo-4-chloro-3-indolyl β-D-glucuronide]
% Sensitivity [1]: 79%
Negative strains [1]: 21
Positive strains [1]: 79
colour (E. coli 260262P): Green
colour (E. coli 260280Z): Green
colour (E. coli 260310H): Green
colour (E. coli 260313A): —
colour (E. coli 260316T): —
colour (E. coli 260327V): Green
colour (E. coli 260330Y): Green
colour (E. coli 260333P): —
colour (E. coli 260345F): Green
colour (E. coli 260348K): Green
colour (E. coli 260354W): Green
colour (E. coli 260364H): —
colour (E. coli 260370C): Green
colour (E. coli 260375E): Green
colour (E. coli 260390B): —
colour (E. coli 260396Z): Green
colour (E. coli 260398Q): Green
colour (E. coli 260400N): —
colour (E. coli 260401Q): Green
colour (E. coli 260402H): Green
colour (E. coli 260404W): Green
colour (E. coli 260405P): Green
colour (E. coli 260406A): —
colour (E. coli 260406Y): Green
colour (E. coli 260407F): Green
colour (E. coli 260408C): Green
colour (E. coli 260411Z): Green
colour (E. coli 260412Q): Green
colour (E. coli 260414H): Green
colour (E. coli 260415Y): Green
colour (E. coli 260416W): —
colour (E. coli 260417P): Green
colour (E. coli 260422Y): Green
colour (E. coli 260424P): Green
colour (E. coli 260425A): Green
colour (E. coli 260426F): Green
colour (E. coli 260428T): Green
colour (E. coli 260431N): Green
colour (E. coli 260432E): Green
colour (E. coli 260433H): Green
colour (E. coli 260434Y): Green
colour (E. coli 260435W): Green
colour (E. coli 260436P): Green
colour (E. coli 260437A): —
colour (E. coli 260438F): Green
colour (E. coli 260439C): Green
colour (E. coli 260440S): Green
colour (E. coli 260441G): Green
colour (E. coli 260458Y): Green
colour (E. coli 260459W): Green
colour (E. coli 260463D): Green
colour (E. coli 260464G): Green
colour (E. coli 260471B): —
colour (E. coli 260478N): —
colour (E. coli 260479Q): Green
colour (E. coli 260480M): Green
colour (E. coli 260481J): Green
colour (E. coli 260483R): —
colour (E. coli 260485D): Green
colour (E. coli 260486L): Green
colour (E. coli 260492J): Green
colour (E. coli 260494B): Green
colour (E. coli 260495R): —
colour (E. coli 260497D): Green
colour (E. coli 260502G): Green
colour (E. coli 260503Z): Green
colour (E. coli 260504N): Green
colour (E. coli 260505Q): —
colour (E. coli 260506E): Green
colour (E. coli 260508Y): Green
colour (E. coli 260509W): Green
colour (E. coli 260510R): Green
colour (E. coli 260511X): Green
colour (E. coli 260514G): —
colour (E. coli 260515Z): —
colour (E. coli 260521S): Green
colour (E. coli 260522Z): Green
colour (E. coli 260532S): Green
colour (E. coli 260533G): Green
colour (E. coli 260536Q): Green
colour (E. coli 260537E): —
colour (E. coli 260538H): —
colour (E. coli 260539Y): Green
colour (E. coli 260541R): Green
colour (E. coli 260545G): Green
colour (E. coli 260547N): Green
colour (E. coli 260548Q): Green
colour (E. coli 260549E): Green
colour (E. coli 260553X): —
colour (E. coli 260554D): Green
colour (E. coli 260555L): Green
colour (E. coli 260563B): Green
colour (E. coli 260564R): Green
colour (E. coli 260578D): —
colour (E. coli 2603121P): —
colour (E. coli 2604399E): Green
colour (E. coli O157 non-toxigenic): —
colour of positive colonies (in words): green colonies
